Among the data in patent publication US20250332173A1, “COMPOUNDS AND METHODS FOR MODULATING NUCLEIC ACID SPLICING” (REMIX THERAPEUTICS INC., priority 2021, published 2025) are IC50 values, retold here.

Where two headings read alike, the source gives them in different places.

Format in all cases: cell-based, human
The test system of assay [1] is MYB. The assay can be described thus: HiBiT protein abundance assay, MYB HiBiT K562 cell line. The following applies: HiBiT K562 cell line, 24 hours, top dose 10 μM; read-out: Effect on protein abundance, MYB (IC50 category). In short, it runs like this:
(§1)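 Tagged-protein abundance measured by split-NanoBiT luminescence after lysis, following 24 h compound exposure (37° C; 10 μM top, 3-fold, 10 points; DMSO ≤0.25%) of HiBiT knock-in K562 cells. Percent response vs DMSO and unmodified-cell controls; 4-parameter logistic interpolation at 50% gave IC50.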

Assay [2] concerns SMN2 mRNA. The assay can be described thus: RT-qPCR splicing assay, SMN2 canonical junction (CJ) mRNA. The following applies: Homo sapiens. Summed up: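 Canonical exon-exon junction transcript levels measured by one-step RT-qPCR of cell lysates, normalized to a housekeeping gene (GAPDH, GUSB or PPIA). Cells used were A673 or K562, exposed for 24 h to compound in 11-point, 3-fold series from 10 uM, with final DMSO at or below 0.25%.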

For assay [3], the system named is HTT. Description: HiBiT protein abundance assay, HTT HiBiT K562 cell line. The following applies: HiBiT K562 cell line, 24 hours, top dose 10 μM; read-out: Effect on protein abundance, HTT (IC50 category). In short, it runs like this: as §1
Assay [4] relates to Target C. Description: HiBiT protein abundance assay, Target C (Promega Nano-Glo HiBiT Lytic Detection System, knock-in K562 cell line). The following applies: Homo sapiens, K562, 24 h, HiBiT K562 cell line, 24 hours, top dose 10 μM; read-out: Effect on protein abundance, Target C (IC50 category). Summed up: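 Protein abundance was read by Nano-Glo HiBiT lytic luminescence after 24 h compound exposure (10-point, threefold series from 10 μM final) of HiBiT knock-in K562 cells. Parental K562 served as baseline; the 50%-abundance concentration was interpolated from a four-parameter logistic fit.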

[5] abbreviates: Table 5 panel, canonical junction qPCR, compound concentration having 50% response in CJ decrease, read-out: SMN2 IC50 (decrease in CJ mRNA levels).
[6] abbreviates: canonical junction qPCR panel, Table 5, read-out: SMN2 (decrease in CJ mRNA levels, IC50).

Take `Cn1cc2cc(-c3ccc4c(=O)n(C5CCNCC5)cnc4c3)ccc2n1` [Compound 182]: the IC50 is 100 to 1000 nM in assay [1], under 100 nM in assay [2] (setting [5]), 1000 to 10000 nM in assay [3] and 1000 to 10000 nM in assay [4].
With `Cc1cn2nc(-c3ccc4c(=O)n(C5CCNCC5)ncc4c3)cc(C)c2n1` [Compound 186], the IC50 is 100 to 1000 nM in assay [1], under 100 nM in assay [2] (setting [5]), 100 to 1000 nM in assay [3] and 100 to 1000 nM in assay [4].
Turning to `Cc1cn2nc(-c3ccc4c(c3F)CCN(C3CCNCC3)C4=O)cc(C)c2n1` [Compound 188], the IC50 in assay [1] is 100 to 1000 nM; in assay [2] (setting [5]) it was under 100 nM; in assay [3], 1000 to 10000 nM; in assay [4], 1000 to 10000 nM.
As for `CN1CCC(Nc2ccc3c(=O)n(-c4ccc5cn(C)nc5c4)cnc3c2)CC1` [Compound 203], the IC50 in assay [1], in assay [2] (setting [5]), in assay [3] and in assay [4] was over 10000 nM each time.
Regarding `Cn1cc2ccc(-n3cnc4cc(NC5CCNCC5)ccc4c3=O)cc2n1` [Compound 204], the IC50 in assay [1], in assay [2] (setting [5]), in assay [3] and in assay [4] was over 10000 nM in each case.
With `Cc1c(O)c(-c2ncc3c(=O)n(C4CCNCC4)cc(C)c3n2)cc2cn(C)nc12` [Compound 1191], the IC50 in assay [1] was 1000 to 10000 nM; in assay [2] (setting [5]), under 100 nM; in assay [3], 1000 to 10000 nM; in assay [4], under 100 nM.
In the case of `Cc1cn2cc(-c3cc4ccn(C5CCNCC5)c(=O)c4cn3)cc(F)c2n1` [Compound 1196], the IC50 in assay [1] was under 100 nM; in assay [2] (setting [5]), under 100 nM; in assay [3], 100 to 1000 nM; in assay [4], 100 to 1000 nM.
For `Cc1cn2nc(-c3cc4ccn(C5CCNCC5)c(=O)c4cn3)cc(C)c2n1` [Compound 1198, 6-(2,8-dimethylimidazo[1,2-b]pyridazin-6-yl)-2-(piperidin-4-yl)-2,7-naphthyridin-1(2H)-one], the IC50 in assay [1], in assay [2] (setting [5]), in assay [3] and in assay [4] was 100 to 1000 nM each time.
Take `Cn1cc2cc(-c3cc4ccn(C5CCNCC5)c(=O)c4cn3)c(O)c(F)c2n1` [Compound 1199]: the IC50 in assay [1] is 1000 to 10000 nM; in assay [2] (setting [5]), under 100 nM; in assay [3] it was 1000 to 10000 nM; in assay [4] it was 1000 to 10000 nM.
For the compound `Cc1cc(-c2cc3ccn(C4CCNCC4)c(=O)c3cn2)cc2cn(C)nc12` [Compound 1204, 6-(2,7-dimethyl-2H-indazol-5-yl)-2-(piperidin-4-yl)-2,7-naphthyridin-1(2H)-one], the 50% inhibitory concentration (IC50) is 100 to 1000 nM in assay [1], under 100 nM in assay [2] (setting [5]), 100 to 1000 nM in assay [3] and 1000 to 10000 nM in assay [4].
Regarding `Cc1cn2cc(-c3cc4ccn(C5CCNCC5)c(=O)c4cn3)nc(C)c2n1` [Compound 1205, 6-(2,8-dimethylimidazo[1,2-a]pyrazin-6-yl)-2-(piperidin-4-yl)-2,7-naphthyridin-1(2H)-one], the IC50 in assay [1] is 100 to 1000 nM; in assay [2] (setting [5]), under 100 nM; in assay [3], 100 to 1000 nM; in assay [4] it was 100 to 1000 nM.
For `Cc1cc(-c2cc3ccn(C4CCN(C)CC4)c(=O)c3cn2)cc2cn(C)nc12` [Compound 1206, 6-(2,7-dimethyl-2H-indazol-5-yl)-2-(1-methylpiperidin-4-yl)-2,7-naphthyridin-1(2H)-one], the IC50 in assay [1] is 100 to 1000 nM; in assay [2] (setting [5]), under 100 nM; in assay [3], 1000 to 10000 nM; in assay [4] it was over 10000 nM.
Taken in the same sequence, the figures for `CCN1CCC(n2ccc3cc(-c4cc(C)c5nn(C)cc5c4)ncc3c2=O)CC1` [Compound 1207, 6-(2,7-dimethyl-2H-indazol-5-yl)-2-(1-ethylpiperidin-4-yl)-2,7-naphthyridin-1(2H)-one] were 1000 to 10000 nM, under 100 nM, 1000 to 10000 nM and 1000 to 10000 nM.
On the same counts, the results for `Cc1cc(-c2cc3ccn(C4CCN(C5CC5)CC4)c(=O)c3cn2)cc2cn(C)nc12` [Compound 1208, 2-(1-cyclopropylpiperidin-4-yl)-6-(2,7-dimethyl-2H-indazol-5-yl)-2,7-naphthyridin-1(2H)-one] are 1000 to 10000 nM, 100 to 1000 nM, over 10000 nM and over 10000 nM.
As to `Cc1cc(-c2cc3ccn(C4CCN(C5COC5)CC4)c(=O)c3cn2)cc2cn(C)nc12` [Compound 1209, 6-(2,7-dimethyl-2H-indazol-5-yl)-2-(1-(oxetan-3-yl)piperidin-4-yl)-2,7-naphthyridin-1(2H)-one-1], the IC50 in assay [1], in assay [2] (setting [5]), in assay [3] and in assay [4] was 100 to 1000 nM each time.
For `Cc1cc(-c2cc3ccn(C4CCN(CCO)CC4)c(=O)c3cn2)cc2cn(C)nc12` [Compound 1210, 6-(2.7-dimethyl-2H-indazol-5-yl)-2-(1-(2-hydroxyethyl)piperidin-4-yl)-2,7-naphthyridin-1(2H)-one], the IC50 is 1000 to 10000 nM in assay [1], 100 to 1000 nM in assay [2] (setting [5]), 1000 to 10000 nM in assay [3] and over 10000 nM in assay [4].
In the case of `Cn1cc2cc(-c3ncc4c(=O)n(C5CCNCC5)ccc4n3)c(O)cc2n1` [Compound 1211], the concentration for half-maximal inhibition (IC50) is under 100 nM in assay [1], under 100 nM in assay [2] (setting [5]), 100 to 1000 nM in assay [3] and 100 to 1000 nM in assay [4].
Turning to `Cn1cc2cc(-c3ncc4c(=O)n(C5CCNCC5)ccc4n3)cc(F)c2n1` [Compound 1212, 2-(7-fluoro-2-methyl-2H-indazol-5-yl)-6-(piperidin-4-yl)pyrido[4,3-d]pyrimidin-5(6H)-one], the IC50 in assay [1] is under 100 nM; in assay [2] (setting [5]) it was under 100 nM; in assay [3], under 100 nM; in assay [4], 100 to 1000 nM.
On to `Cc1cn2cc(-c3cc4ccn(C5CCNC5)c(=O)c4cn3)cc(C#N)c2n1` (stereo not drawn) [Compound 1214], for which the IC50 in assay [1] was 1000 to 10000 nM; in assay [2] (setting [5]) it was 100 to 1000 nM; in assay [3] it was over 10000 nM; in assay [4], over 10000 nM.
Take `Cc1cn2cc(-c3ncc4c(=O)n(C5CCNC5)ccc4n3)cc(F)c2n1` (stereo not drawn) [Compound 1215]: the IC50 is 100 to 1000 nM in assay [1], under 100 nM in assay [2] (setting [5]), over 10000 nM in assay [3] and 1000 to 10000 nM in assay [4].
On the same counts, the results for `COc1c(-c2cc3ccn(C4CCNCC4)c(=O)c3cn2)cc2cn(C)nc2c1F` [Compound 1219] are 100 to 1000 nM, 100 to 1000 nM, 1000 to 10000 nM and 1000 to 10000 nM.
On the same counts, the results for `Cc1cn2cc(-c3ncc4c(=O)n(C5CCNC5)ccc4n3)cc(C#N)c2n1` (stereo not drawn) [Compound 1221] are 100 to 1000 nM, 100 to 1000 nM, 100 to 1000 nM and 100 to 1000 nM.
On the same counts, the results for `Cc1c(O)c(-c2ncc3c(=O)n(C4CCNC4)ccc3n2)cc2cn(C)nc12` (stereo not drawn) [Compound 1222] are under 100 nM, under 100 nM, over 10000 nM and over 10000 nM.
As to `Cn1cc2cc(-c3ncc4c(=O)n(C5CCNC5)ccc4n3)c(O)c(F)c2n1` (stereo not drawn) [Compound 1223], the half-inhibitory concentration (IC50) is 100 to 1000 nM in assay [1], under 100 nM in assay [2] (setting [5]), 1000 to 10000 nM in assay [3] and 1000 to 10000 nM in assay [4].
Regarding `Cc1cn2cc(-c3ncc4c(=O)n(C5CCNCC5)ccc4n3)c(O)c(C)c2n1` [Compound 1225], the IC50 is 100 to 1000 nM in assay [1], under 100 nM in assay [2] (setting [5]), 100 to 1000 nM in assay [3] and 100 to 1000 nM in assay [4].
Regarding `Cc1cn2cc(-c3ncc4c(=O)n(C5CCNC5)ccc4n3)c(O)c(C)c2n1` (stereo not drawn) [Compound 1227], the IC50 in assay [1] is 1000 to 10000 nM; in assay [2] (setting [5]), 100 to 1000 nM; in assay [3], over 10000 nM; in assay [4] it was over 10000 nM.
In the case of `Cc1cn2cc(-c3ncc4c(=O)n([C@@H]5CCNC5)ccc4n3)cc(F)c2n1` [Compound 1228], the IC50 in assay [1] is 100 to 1000 nM; in assay [2] (setting [5]) it was under 100 nM; in assay [3], over 10000 nM; in assay [4] it was 1000 to 10000 nM.
For the compound `Cn1cc2cc(-c3ccc4c(=O)n(C5CCNCC5)ccc4n3)cc(F)c2n1` [Compound 1231], the IC50 in assay [1] is 100 to 1000 nM; in assay [2] (setting [6]), under 100 nM; in assay [3] it was 100 to 1000 nM; in assay [4] it was 100 to 1000 nM.
Turning to `Cc1cn2cc(-c3ccc4c(=O)n(C5CCNCC5)ccc4n3)nc(C)c2n1` [Compound 1238, 2-(2,8-dimethylimidazo[1,2-a]pyrazin-6-yl)-6-(piperidin-4-yl)-1,6-naphthyridin-5(6H)-one], the IC50 in assay [1] was over 10000 nM; in assay [2] (setting [6]), 1000 to 10000 nM; in assay [3], over 10000 nM; in assay [4], over 10000 nM.
Consider `Cc1cn2cc(-c3ccc4c(=O)n(C5CCNCC5)ccc4n3)c(O)cc2n1` [Compound 1240], for which the IC50 is over 10000 nM in assay [1], 100 to 1000 nM in assay [2] (setting [6]), over 10000 nM in assay [3] and over 10000 nM in assay [4].
